From patent US20230027066A1 (Urovant Sciences GmbH, priority 2019, published 2023)

System: men and women with overactive bladder
Assay: Phase 3 study of vibegron 75 mg vs placebo and tolterodine ER 4 mg, 12 weeks, efficacy (voiding and urine volume diary)
Type: in vivo, human
Experimental: Enrollment of patients included individuals with OAB Wet (those with UUI, the involuntary loss of urine accompanied by urgency) and OAB Dry (those without UUI). A total of 1,518 patients were randomized across 215 study sites into one of three groups for a 12-week treatment period.
The study consisted of a Screening Period (1 to 5 weeks), a single-blind Run-in Period (2 weeks), a randomized double-blind Treatment Period (12 weeks), and a Follow-up Period (4 weeks).
Tolterodine ER 4 mg was the active control. […] Between the Baseline and Week 12 Visits, patients had study assessments at Week 4 and Week 8.
The Patient Voiding Diary was used by participants (via the eDiary or paper Diary) to record the frequency of daily OAB symptoms including all micturitions, urgency, incontinence, and main reason for incontinence by selecting the respective box for each symptom occurring during the course of a given day and night.
Urine volume data were collected separately by patients using the Urine Volume component of the eDiary, or the paper Urine Volume Chart. The Urine Volume Chart is a tool used in clinical practice and clinical investigation to assess voiding functions over a 24-hour period and is regarded as a useful instrument in the investigation of patients with voiding symptoms. Urine volume may be collected during any one (1) of the 7 Diary Days prior to the visit, and it should be recorded for ˜24 hours starting from the time the patient gets up for the day and continues until the time the patient gets up for the day on the next day.
For the purpose of this study, the number of micturitions was defined as the number of times a patient has voided in the toilet as indicated on the Patient Voiding Diary. Average daily micturitions were calculated using the daily entries in the Patient Voiding Diary, which was completed over the 7 days prior to each study visit. Average daily number of micturitions were calculated as the total number of micturitions that occurred on a Complete Diary Day divided by the number of Complete Diary Days in the Patient Voiding Diary. A complete diary day required confirmation by the patient in the Patient Voiding Diary that all voids and leakages had been recorded for the diary day. Baseline was defined as the average number of micturitions occurring during the last evaluable diary prior to the Baseline Visit.
The number of UUI episodes was defined as the number of times a patient had checked “urge” as the reason for accidental urine leakage. Average daily UUI episodes at each study visit were calculated in the same manner as described above for the micturition endpoint. The UUI endpoint were analyzed using only OAB Wet patients.
For the analysis of the co-primary endpoints (change from baseline in average number of daily micturitions at Week 12 and change from baseline in average number of daily urge urinary incontinence episodes at Week 12, and placebo adjustment of each), a mixed model for repeated measure (MMRM) with restricted maximum likelihood estimation was used. This model corrects for dropout and accounts for the fact that measurements taken on the same patient over time tend to be correlated by using all available information on patients within the same covariate set to derive an estimate of the treatment effect for a dropout-free population. The analysis model for each efficacy endpoint includes terms for treatment, visit, OAB Type (Wet vs Dry), Sex (Female vs Male), Region (US vs Rest of World), baseline score, and interaction of visit by treatment.
Primary inferences were drawn from treatment differences for the changes from baseline derived from the MMRM models at Week 12. As part of secondary objectives, the treatment differences for each post baseline visit were also derived using the same MMRM model. […]

[1] = Week 8, events of Events/Censored
[2] = Week 12, Age ≥ 75 years (posthoc analysis)
[3] = Week 12, No Prior ACH Use in last 12 Mo.
[4] = Week 12, No Prior B3 Agonist Use in last 12 Mo.
[5] = Week 12, Prior ACH Use in last 12 Mo.
[6] = Week 12, Prior B3 Agonist Use in last 12 Mo.

SMILES: Cc1ccc(O)c([C@H](CCN(C(C)C)C(C)C)c2ccccc2)c1 [Tolterodine ER, tolterodine, reference compound]
- Average daily number of urgency episodes, Mean (SD) (Week 8): 5.60 (4.266)
- Average volume voided per micturition, Active - Placebo LS Mean Difference (Week 8): 14.4 mL
- Average volume voided per micturition, Week 8 Mean (SD) (Week 8): 162.9 (74.46) mL
- Change from Baseline in Average Daily Number of Total Incontinence, LS Mean (SE) (Week 8): −1.8 (0.16)
- Change from baseline in average daily number of urgency episodes, LS Mean (Week 8): −2.2
- Change from baseline in average volume voided per micturition, LS Mean (SE) (Week 8): 17.5 (3.44) mL
- Estimated Incidence of Subjects with 50% Decrease from Baseline (urgency episodes) (Week 8): 30.9
- Estimated Incidence of Subjects with 100% Decrease from Baseline (UUI episodes) (Week 8): 15.8
- Total Incontinence, Active - Placebo LS Mean Difference (SE) (Week 8): −0.5 (0.17)
- Urgency episodes, Active - Placebo LS Mean Difference (Week 8): −0.6
- First 50% Reduction in Urgency Episodes, Events [1]: 127/290
- First 100% Reduction in UUI Episodes, Events [1]: 49/270
- Average Daily Number of Total Incontinence, Mean (SD) (Week 12): 1.89 (2.353)
- Average daily number of urgency episodes, Mean (SD) (Week 12): 5.36 (4.425)
- Average volume voided per micturition, Active - Placebo LS Mean Difference (Week 12): 13.3 mL
- Average volume voided per micturition, Week 12 Mean (SD) (Week 12): 162.1 (72.96) mL
- Change from Baseline in Average Daily Number of Total Incontinence, LS Mean (SE) (Week 12): −2.0 (0.16)
- Change from baseline in average daily number of urgency episodes, LS Mean (Week 12): −2.5
- Change from baseline in average volume voided per micturition, LS Mean (SE) (Week 12): 15.5 (3.52) mL
- Estimated Incidence of Subjects with 50% Decrease from Baseline (urgency episodes) (Week 12): 40.5
- Estimated Incidence of Subjects with 100% Decrease from Baseline (UUI episodes) (Week 12): 24.4
- Total Incontinence, Active - Placebo LS Mean Difference (SE) (Week 12): −0.5 (0.17)
- Urgency episodes, Active - Placebo LS Mean Difference (Week 12): −0.4
- Micturitions: Week 12 CFB Mean (descriptive statistics) (Week 12, <65 yrs): −1.99
- UUI: Week 12 CFB Mean (descriptive statistics) (Week 12, African American): −1.42
- UUI: Week 12 CFB Median (Week 12, African American): −1.43
- Micturitions: Week 12 CFB LS Mean (95% CI) (Week 12, Age < 65 years): −1.8
- UUI: Week 12 CFB LS Mean (95% CI) (Week 12, Age < 65 years): −1.8
- UUI: Week 12 CFB Mean (descriptive statistics) (Week 12, Age < 65 years): −1.72
- Micturitions: Week 12 CFB LS Mean (95% CI) (Week 12, Age ≥ 65 years): −1.3
- UUI: Week 12 CFB LS Mean (95% CI) (Week 12, Age ≥ 65 years): −1.8
- UUI: Week 12 CFB Mean (descriptive statistics) (Week 12, Age ≥ 65 years): −1.80
- Micturitions: Week 12 CFB LS Mean (95% CI) [2]: −1.5
- UUI: Week 12 CFB LS Mean (95% CI) [2]: −2.0
- UUI: Week 12 CFB Mean (descriptive statistics) (Week 12, Asian): −0.21
- UUI: Week 12 CFB Median (Week 12, Asian): −0.14
- Micturitions: Week 12 CFB LS Mean (95% CI) (Week 12, Females): −1.7
- Micturitions: Week 12 CFB Mean (descriptive statistics) (Week 12, Females): −1.88
- UUI: Week 12 CFB LS Mean (95% CI) (Week 12, Females): −1.8
- UUI: Week 12 CFB Mean (descriptive statistics) (Week 12, Females): −1.71
- Micturitions: Week 12 CFB LS Mean (95% CI) (Week 12, Males): −1.0
- Micturitions: Week 12 CFB Mean (descriptive statistics) (Week 12, Males): −1.28
- UUI: Week 12 CFB LS Mean (95% CI) (Week 12, Males): −2.0
- UUI: Week 12 CFB Mean (descriptive statistics) (Week 12, Males): −2.08
- Micturitions: Week 12 CFB Mean (descriptive statistics) (Week 12, Males with BPH): −1.25
- UUI: Week 12 CFB Mean (descriptive statistics) (Week 12, Males with BPH): −2.15
- Micturitions: Week 12 CFB Mean (descriptive statistics) (Week 12, Males without BPH): −1.29
- UUI: Week 12 CFB Mean (descriptive statistics) (Week 12, Males without BPH): −2.05
- Micturitions: Week 12 CFB Mean (descriptive statistics) [3]: −1.82
- UUI: Week 12 CFB Mean (descriptive statistics) [3]: −1.88
- Micturitions: Week 12 CFB Mean (descriptive statistics) [4]: −1.83
- UUI: Week 12 CFB Mean (descriptive statistics) [4]: −1.83
- Micturitions: Week 12 CFB LS Mean (95% CI) (Week 12, Non-White): −1.3
- Micturitions: Week 12 CFB Mean (descriptive statistics) (Week 12, Non-White): −1.42
- UUI: Week 12 CFB LS Mean (95% CI) (Week 12, Non-White): −1.3
- UUI: Week 12 CFB Mean (descriptive statistics) (Week 12, Non-White): −1.11
- UUI: Week 12 CFB Median (Week 12, Non-White): −1.00
- Micturitions: Week 12 CFB LS Mean (95% CI) (Week 12, Overall): −1.6
- Micturitions: Week 12 CFB Mean (descriptive statistics) (Week 12, Overall): −1.78
- UUI: Week 12 CFB LS Mean (95% CI) (Week 12, Overall): −1.8
- UUI: Week 12 CFB Mean (descriptive statistics) (Week 12, Overall): −1.75
- Micturitions: Week 12 CFB Mean (descriptive statistics) [5]: −1.52
- UUI: Week 12 CFB Mean (descriptive statistics) [5]: −0.98
- Micturitions: Week 12 CFB Mean (descriptive statistics) [6]: −1.30
- UUI: Week 12 CFB Mean (descriptive statistics) [6]: −0.65
- Micturitions: Week 12 CFB LS Mean (95% CI) (Week 12, Region: Non-US): −1.0
- Micturitions: Week 12 CFB Mean (descriptive statistics) (Week 12, Region: Non-US): −1.38
- UUI: Week 12 CFB LS Mean (95% CI) (Week 12, Region: Non-US): −2.0
- UUI: Week 12 CFB Mean (descriptive statistics) (Week 12, Region: Non-US): −2.26
- Micturitions: Week 12 CFB LS Mean (95% CI) (Week 12, Region: US): −1.7
- Micturitions: Week 12 CFB Mean (descriptive statistics) (Week 12, Region: US): −1.83
- UUI: Week 12 CFB LS Mean (95% CI) (Week 12, Region: US): −1.7
- UUI: Week 12 CFB Mean (descriptive statistics) (Week 12, Region: US): −1.69
- Micturitions: Week 12 CFB LS Mean (95% CI) (Week 12, White): −1.6
- Micturitions: Week 12 CFB Mean (descriptive statistics) (Week 12, White): −1.90
- UUI: Week 12 CFB LS Mean (95% CI) (Week 12, White): −1.9
- UUI: Week 12 CFB Mean (descriptive statistics) (Week 12, White): −1.92
- UUI: Week 12 CFB Median (Week 12, White): −1.57
